# Source: BindingDB's records for doi:10.7270/Q2JD4V7Q (The Scripps Research Institute Molecular Screening Center, 2010)
# Biological target: T1, NADPH oxidase 1 (Homo sapiens, UniProt Q9Y5S8)
# T1 sequence (Q9Y5S8 whole entry): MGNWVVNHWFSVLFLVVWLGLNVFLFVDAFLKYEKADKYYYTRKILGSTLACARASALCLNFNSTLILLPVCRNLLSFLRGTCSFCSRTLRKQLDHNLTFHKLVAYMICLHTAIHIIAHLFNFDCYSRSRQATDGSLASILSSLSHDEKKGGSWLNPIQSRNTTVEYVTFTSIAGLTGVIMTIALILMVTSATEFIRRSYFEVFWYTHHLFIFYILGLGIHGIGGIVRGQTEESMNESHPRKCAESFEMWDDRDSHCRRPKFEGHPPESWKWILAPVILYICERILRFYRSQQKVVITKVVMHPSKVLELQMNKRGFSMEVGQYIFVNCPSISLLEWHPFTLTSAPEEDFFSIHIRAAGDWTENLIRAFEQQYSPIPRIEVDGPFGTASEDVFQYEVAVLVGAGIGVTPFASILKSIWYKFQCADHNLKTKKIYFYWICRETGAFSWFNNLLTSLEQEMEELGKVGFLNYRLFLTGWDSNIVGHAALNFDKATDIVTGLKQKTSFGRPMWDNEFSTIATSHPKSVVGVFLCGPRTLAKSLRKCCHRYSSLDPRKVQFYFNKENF
# Test: xanthine oxidase inhibitors, late-stage follow-up, NOX1 inhibitor project, biochemical, IC50, set 2 (AID 435009)
row,IC50,SMILES
1,> 50 µM,CN(C)c1ccc(CN=Nc2c(Cl)cncc2Cl)cc1
2,> 50 µM,"Oc1c(Br)cc(CN=Nc2c(Cl)cncc2Cl)cc1Br [4-[[2-[3,5-bis(chloranyl)pyridin-4-yl]hydrazinyl]methylidene]-2,6-bis(bromanyl)cyclohexa-2,5-dien-1-one]"
